Read-outs that look alike come from different tables or passages of the source.
What was measured:
[1] = test system: HCV GT-3 subgenomic replicon; settings: viral subgenomic replicon models; range over the named PIs; cited from earlier work
GT-3 HCV NS3/4A protease [2] = target: GT-3 HCV NS3/4A protease (Hepatitis C virus genotype 3a, UniProt Q81258); test: biochemical
GT-3 HCV NS3/4A protease [3] = test: biochemical; parameters: species or system Hepatitis C virus genotype 3a; settings: for fold change (FC) in Ki, GT-3 relative to GT-1: GT-3 Ki / GT-1 Ki; for loss in affinity in GT-3 relative to GT-1: GT-3 vs GT-1
[4] = test system: GT-1a NS3/4A protease with D168Q; type: biochemical, Hepatitis C virus genotype 1a; settings: GT-1a D168Q vs GT-1 WT protease
[5] = test system: GT-1a NS3/4A protease with R123T/I132L/D168Q (1a3a); test: Enzyme inhibition assay, chimeric 1a3a NS3/4A protease; type: biochemical, Hepatitis C virus; settings: 1a3a chimera vs GT-1 WT
GT-1 HCV NS3/4A protease = settings: read-out: Ki against GT-1 NS3/4A protease; GT-1a wild type; cited from earlier work
[6] = target: GT-1a NS3/4A protease with D168Q (Hepatitis C virus genotype 1a, UniProt P27958, D1194Q); type: biochemical; settings: GT-1a D168Q

Row | Structure (SMILES) | loss in activity against GT-3 compared to GT-1 [1] | Ki in GT-3 (in words) (GT-3 HCV NS3/4A protease [2]) | fold change (FC) in Ki, GT-3 relative to GT-1 (GT-3 HCV NS3/4A protease [3]) [fold] | fold change (loss) in potency, D168Q relative to GT-1 WT [4] [fold] | loss in potency, R123T/I132L/D168Q (1a3a) relative to GT-1 WT [5] | Ki (GT-1 HCV NS3/4A protease) [nM] | Ki (GT-3 HCV NS3/4A protease [2]; read-out: Ki against GT-3 NS3/4A protease, GT-3a) [nM] | loss in affinity in GT-3 relative to GT-1 (GT-3 HCV NS3/4A protease [3]) | inhibition constant against D168Q (in words) [6] | Ki (GT-3 HCV NS3/4A protease [2]) [nM]
1 | CC[C@@H]1C[C@]1(NC(=O)[C@@H]1C[C@@H](Oc2cc(-c3csc(NC(C)C)n3)nc3c(Cl)c(OCCN4CCOCC4)ccc23)CN1C(=O)[C@@H](NC(=O)O[C@@H]1C[C@@H]2C[C@@H]2C1)C(C)(C)C)C(=O)O [GS-9451] | 140- to 1500 fold |  |  |  |  |  |  |  |  | 
2 | COc1ccc2c(O[C@@H]3C[C@H]4C(=O)N[C@]5(C(=O)NS(=O)(=O)C6CC6)C[C@H]5/C=C\CCCCN(C)C(=O)[C@@H]4C3)cc(-c3nc(C(C)C)cs3)nc2c1C [simeprevir] | 140- to 1500 fold |  |  |  |  |  |  |  |  | 
3 | CC[C@@H]1C[C@]1(NC(=O)[C@@H]1C[C@@H]2CN1C(=O)[C@H](C(C)(C)C)NC(=O)OCC(C)(C)CCCCc1cccc3c1CN(C3)C(=O)O2)C(=O)NS(=O)(=O)C1CC1 [VAN, vaniprevir] |  | low to submicromolar | 533 | 44 | 2–3 orders of magnitude | 0.7 |  |  |  | 
4 | C=C[C@@H]1C[C@]1(NC(=O)[C@@H]1C[C@@H](Oc2ncc(OC)c3ccc(Cl)cc23)CN1C(=O)[C@@H](NC(=O)OC(C)(C)C)C(C)(C)C)C(=O)NS(=O)(=O)C1CC1 [ASV, asunaprevir] |  | low to submicromolar | 975 | 72 | 2–3 orders of magnitude | 2.7 |  |  |  | 
5 | COc1ccc2nc3c(nc2c1)O[C@@H]1C[C@H]2C(=O)N[C@]4(C(=O)NS(=O)(=O)C5(C)CC5)C[C@H]4/C=C/CCCCC[C@H](NC(=O)O[C@@H]4CCC[C@H]4CCCCC3)C(=O)N2C1 [MK-6325] |  |  |  | 4 | 2–3 orders of magnitude | 0.1 | 31 | 2–3 orders of magnitude | subnanomolar | 
6 | C=C[C@@H]1C[C@]1(NC(=O)[C@@H]1C[C@@H]2CN1C(=O)[C@H](C(C)(C)C)NC(=O)O[C@@H]1C[C@H]1CCCCCc1nc3ccc(OC)cc3nc1O2)C(=O)NS(=O)(=O)C1CC1.O [grazoprevir] | 140- to 1500 fold |  |  |  | 2–3 orders of magnitude | 0.1 |  | 2–3 orders of magnitude |  | 
7 | CCC[C@H](NC(=O)[C@@H]1[C@H]2CCC[C@H]2CN1C(=O)[C@@H](NC(=O)[C@@H](NC(=O)c1cnccn1)C1CCCCC1)C(C)(C)C)C(=O)C(=O)NC1CC1 [telaprevir] |  |  | 8 | 1.2 |  | 33 |  |  |  | 266
8 | CC(C)(C)OC(=O)N[C@H]1CCCCC/C=C\[C@@H]2C[C@@]2(C(=O)NS(=O)(=O)C2CC2)NC(=O)[C@@H]2C[C@@H](OC(=O)N3Cc4cccc(F)c4C3)CN2C1=O [DAN, danoprevir] | 140- to 1500 fold | low to submicromolar | 878 | 30 | 2–3 orders of magnitude | 1 |  |  |  | 
9 | CC(C)(C)NC(=O)N[C@H](C(=O)N1C[C@H]2[C@@H]([C@H]1C(=O)NC(CC1CCC1)C(=O)C(N)=O)C2(C)C)C(C)(C)C (stereo partly drawn) [boceprevir] |  |  | 2.2 | 0.7 |  | 33 |  |  |  | 71
